We go through ten compounds from article PMC10793205, “Differential transmetallation of complexes of the anti-cancer thiosemicarbazone, Dp4e4mT: effects on anti-proliferative efficacy, redox activity, oxy-myoglobin and oxy-hemoglobin oxidation” (Chemical Science, 2023).

One data set deals with MRC-5 fibroblasts. The experiment in a line: MTT cellular proliferation assay, mortal MRC-5 fibroblasts. The data set is classed as cell-based. The settings on record: 37 °C, mean ± SD (3 experiments). On the procedure: (§1) To examine the selectivity of the Dp4e4mT complexes against neoplastic versus normal mortal cells, their anti-proliferative efficacy was compared to mortal MRC-5 fibroblasts after a 72 h/37 °C incubation (Table 3). […] To further examine selectivity, an in vitro therapeutic index was calculated as per our previous investigations.[28,57,59,66,67] This parameter is derived from the ratio of the IC50 of MRC-5 cells/IC50 of SK-N-MC or AsPC-1 cells; with high ratios indicating greater selective anti-proliferative activity against neoplastic cells (Table 3). The mean therapeutic index is the average of the therapeutic indices calculated for both tumor cell-types. […] The mean therapeutic index of Dp4e4mT exceeded that obtained for clinically trialed DpC (157), as well as that of Dp44mT (112) and DFO (6). […]
(§2) All cell lines were procured from the American Type Culture Collection (ATCC; Manassas, VA). The SK-N-MC neuroepithelioma cell line and the mortal MRC-5 fibroblasts were cultured in minimum essential medium (Sigma-Aldrich), while the AsPC-1 cell line was cultured in Roswell Park Memorial Institute 1640 medium (Thermo Fisher Scientific, MA, USA). Both media were supplemented with 10% fetal calf serum, non-essential amino acids (1 mM), sodium pyruvate (1 mM), L-glutamine (2 mM), penicillin (100 U/mL), streptomycin (100 U/mL), and Fungizone (0.5 µg/mL). Cells were maintained at 37 °C in an incubator under a humidified atmosphere with 5% CO 2, following established protocols. 11 Cellular Proliferation Assay
(§3) Cellular proliferation was evaluated through the established 3-(4,5-dimethylthiazol-2-yl)-2,5-diphenyltetrazolium bromide (MTT) proliferation assay, validated by viable cell counts.12 […]
(§4) Ligands and complexes were dissolved in DMSO to make a stock solution of 10 mM, subsequently diluted in culture media. For cell culture experiments, the DMSO's maximum concentration remained below 0.5% (v/v), with no discernible impact on proliferation.12 MTT […]
(§5) Trypan blue staining.12 Analysis of the data was executed employing MARS Data Analysis Software (BMG LabTech; version 3.30). The concentration of agents necessary to inhibit cellular proliferation by 50% (IC 50) was then calculated. […]

A short description of data set [1]: Cyclic voltammetry (redox potentials). The data set is classed as physicochemical. The settings on record: 1 mM in MeCN/H2O 7 : 3 (v/v) + 0.1 M Et4NClO4, sweep rate 100 mV s^−1. An excerpt:
The redox potentials of Fe(III)- and Cu(II)-thiosemicarbazone complexes have been extensively studied and are important for understanding intracellular redox activity and ROS generation.[23,27,28,42] Considering this, the electrochemical properties of [Fe(Dp44mT)2]^+, [Fe(DpC)2]^+, [Fe(Dp4e4mT)2]^+, [Co(Dp4e4mT)2]^+, [Ni(Dp4e4mT)2], [Cu(Dp4e4mT)Cl], [Ga(Dp4e4mT)2]^+, and [Pd(Dp4e4mT)Cl] were investigated with cyclic voltammetry in MeCN : H2O (70 : 30 v/v; Fig. 4A and B). This solvent system was implemented to provide sufficient solubility and because it has been used by our laboratories previously to measure potentials of thiosemicarbazone complexes enabling effective comparison.[28,45,57–59]
Fig. 4 Cyclic voltammograms of: (A) [Fe(Dp44mT)2]^+, [Fe(DpC)2]^+, and [Fe(Dp4e4mT)2]^+. (B) [Co(Dp4e4mT)2]^+, [Ni(Dp4e4mT)2], [Cu(Dp4e4mT)Cl], [Ga(Dp4e4mT)2]^+, and [Pd(Dp4e4mT)Cl] (1 mM in MeCN/H2O 7 : 3 (v/v) + 0.1 M Et4NClO4) at a sweep rate of 100 mV s^−1. The voltammograms were recorded using a glassy carbon working electrode versus a […] (NHE). […]
Cyclic voltammograms were acquired for the Fe(III), Co(III), Ni(II), Cu(II), Ga(III), and Pd(II) complexes of Dp4e4mT utilizing a BAS100B/W potentiostat, equipped with an aqueous Ag/AgCl reference electrode, a glassy carbon working electrode, and a Pt wire auxiliary […]
electrode. […]

For a further data set, the system named is SK-N-MC and AsPC-1 cells. Kind of data set: MTT cellular proliferation assay, values stated over both tumor cell-types. The data set is classed as cell-based, human. Conditions: for IC50: SK-N-MC and AsPC-1, after 72 h, read-out: IC50 (range over both cell-types); for Mean therapeutic index: average of the therapeutic indices for SK-N-MC and AsPC-1 vs MRC-5, 72 h/37 °C. As for the experimental part: The anti-proliferative activity of Dp4e4mT relative to its complexes with Fe(III), Co(III), Ni(II), Cu(II), Zn(II), Ga(III), and Pd(II) was examined over incubation periods of 24-, 48-, and 72 h/37 °C (Table 2). These studies were performed using human SK-N-MC neuroepithelioma and AsPC-1 pancreatic adenocarcinoma cells that we have previously examined to assay other ligands.[15,28,43]
as §1, §2, §3, §4, §5

[2] abbreviates: listed as Dp4e4mT Co(III) complex.
[3] abbreviates: Homo sapiens, MRC5, MRC-5, 72 h.
The mark [4] stands for this setting: listed as Dp4e4mT Pd(II) complex.

Where two headings read alike, the source gives them in different places.

For the compound `CCN(C)C([S-])=NN=C(c1ccccn1)c1ccccn1.CCN(C)C([S-])=NN=C(c1ccccn1)c1ccccn1.[Co+3]` [[Co(Dp4e4mT)2]^+], the half-maximal inhibitory concentration (IC50) with MRC-5 fibroblasts (MRC-5, 72 h) is 3901 ± 7 nM; in the data set with SK-N-MC and AsPC-1 cells (setting [2]) it was 262 to 1570 nM; in the data set on SK-N-MC and AsPC-1 cells it was 818 to 1570 nM. Besides, the “Redox potential (mV vs. NHE)” value in data set [1] is “–642 mV vs. NHE”. In addition, the Mean therapeutic index with SK-N-MC and AsPC-1 cells is reported as 3; in the data set on SK-N-MC and AsPC-1 cells (setting [2]), 3–9.
Turning to `CN(C)C(=S)NN=C(c1ccccn1)c1ccccn1` [Dp44mT, di-2-pyridylketone 4,4-dimethyl-3-thiosemicarbazone, reference compound], half-maximal inhibition with MRC-5 fibroblasts (setting [3]) (IC50) required 1073 ± 7 nM. In the data set on SK-N-MC and AsPC-1 cells, this compound yielded a Mean therapeutic index of 112.
`CCN(C)C([S-])=NN=C(c1ccccn1)c1ccccn1.CCN(C)C([S-])=NN=C(c1ccccn1)c1ccccn1.[Ga+3]` [[Ga(Dp4e4mT)2]^+] returned a concentration for half-maximal inhibition (IC50) with MRC-5 fibroblasts (MRC-5, 72 h) of 774 ± 14 nM. In addition, the “Redox potential (mV vs. NHE)” value in data set [1] (listed as Dp4e4mT Ga(III) complex) was −533 mV vs. NHE; in data set [1] (listed as [Ga(Dp4e4mT)2]^+/0), “–533 (irreversible) mV vs. NHE”. Further, in the data set on SK-N-MC and AsPC-1 cells, the Mean therapeutic index is 173.
Consider `CN(C(=S)NN=C(c1ccccn1)c1ccccn1)C1CCCCC1` [DpC, di-2-pyridylketone 4-cyclohexyl-4-methyl-3-thiosemicarbazone, reference compound], for which the concentration for half-maximal inhibition (IC50) is 2987 ± 8 nM in the data set on MRC-5 fibroblasts (setting [3]); 18 to 28 nM in the data set on SK-N-MC and AsPC-1 cells (Homo sapiens). In addition, the Mean therapeutic index in the data set with SK-N-MC and AsPC-1 cells was determined as 157.
Compound `CCN(C)C([S-])=NN=C(c1ccccn1)c1ccccn1.CCN(C)C([S-])=NN=C(c1ccccn1)c1ccccn1.[Zn+2]` [[Zn(Dp4e4mT)2]] displayed a Mean therapeutic index with SK-N-MC and AsPC-1 cells of 156.
Consider `CCN(C)C([S-])=NN=C(c1ccccn1)c1ccccn1.[Cl-].[Pd+2]` [[Pd(Dp4e4mT)Cl]], for which the half-maximal inhibitory concentration (IC50) is 1040 ± 11 nM in the data set with MRC-5 fibroblasts (MRC-5, 72 h); 262 to 1570 nM with SK-N-MC and AsPC-1 cells. In addition, the “Redox potential (mV vs. NHE)” value in data set [1] is on record as “–626 (irreversible) mV vs. NHE”; in data set [1] (setting [4]) it was −626 mV vs. NHE. Besides, the Mean therapeutic index in the data set on SK-N-MC and AsPC-1 cells is 3; in the data set on SK-N-MC and AsPC-1 cells (setting [4]), 3–9.
Compound `CCN(C)C([S-])=NN=C(c1ccccn1)c1ccccn1.[Cl-].[Cu+2]` [[Cu(Dp4e4mT)Cl]] registered a half-inhibitory concentration (IC50) in the data set on MRC-5 fibroblasts (MRC-5, 72 h) of 391 ± 72 nM. In addition, the “Redox potential (mV vs. NHE)” value was −151 mV vs. NHE in data set [1] and “–151 mV vs. NHE” in data set [1] (listed as [Cu(Dp4e4mT)(Cl)]^±). Besides, the Mean therapeutic index with SK-N-MC and AsPC-1 cells amounted to 130.
Turning to `CCN(C)C([S-])=NN=C(c1ccccn1)c1ccccn1.CCN(C)C([S-])=NN=C(c1ccccn1)c1ccccn1.[Fe+3]` [[Fe(Dp4e4mT)2]^+], in the data set with MRC-5 fibroblasts (MRC-5, 72 h), the IC50 came out at 1980 ± 6 nM. The “Redox potential (mV vs. NHE)” value in data set [1] is “+70 mV vs. NHE”. Further, the Mean therapeutic index is given as 9 in the data set with SK-N-MC and AsPC-1 cells; 3–9 in the data set on SK-N-MC and AsPC-1 cells (listed as Dp4e4mT Fe(III) complex).
`CCN(C)C([S-])=NN=C(c1ccccn1)c1ccccn1.CCN(C)C([S-])=NN=C(c1ccccn1)c1ccccn1.[Ni+2]` [[Ni(Dp4e4mT)2]] displayed an IC50 in the data set on MRC-5 fibroblasts (MRC-5, 72 h) of more than 5000 nM. For the same compound, in data set [1], the “Redox potential (mV vs. NHE)” value is on record as “+647 mV vs. NHE”. In addition, in the data set with SK-N-MC and AsPC-1 cells, the IC50 was 18 to 76 nM and the Mean therapeutic index worked out at 156.
`CCN(C)C(=S)NN=C(c1ccccn1)c1ccccn1` [Dp4e4mT, di-2-pyridylketone-4-ethyl-4-methyl-3-thiosemicarbazone] had an IC50 with MRC-5 fibroblasts (setting [3]) of 1810 ± 518 nM. This compound also came in with a Mean therapeutic index in the data set with SK-N-MC and AsPC-1 cells of 210.
